From patent publication US11479551B2, “MTA-cooperative PRMT5 inhibitors” (Mirati Therapeutics, Inc., priority 2019, dated 2022)
Where two headings read alike, the source gives them in different places.

Columns and labels:
[1] = biological target: PRMT5/MEP50 complex (Homo sapiens (Human), UniProt O14744); assay: PRMT5:MEP50 HotSpot Assay (full-length histone H2A substrate, plus and minus MTA); format: biochemical; conditions: IC50 + 2 μM MTA, in the presence of 2 μM MTA
Outline: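 Tritium incorporated into recombinant full-length histone H2A was counted by scintillation after stopped reactions were captured on filter paper.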

[2] = system: HCT116 homozygous MTAP knockout cells; assay: Proliferation assay (CellTiter-Glo, 10 days of treatment), HCT116 MTAP knockout; format: cell-based; conditions: read-out: Proliferation HCT116MTAP_KO IC50
Method: (§1) 1. HCT116 MTAP Knockout Model
(§2) HCT116 cells were genetically engineered to knock out the function of both MTAP alleles using a CRISPR/Cas9 system and an sgRNA targeting the MTAP gene. Following Cas9/MTAP sgRNA transduction, clones were screened to confirm that each allele of the MTAP gene had been inactivated (i.e., homozygous MTAP knock out) creating an MTAP-deficient cell.
(§3) Control samples were analyzed in parallel.
Briefly, on Day 0, 250 HCT116 parental or HCT116 homozygous MTAP knockout cell were seeded in 96 well plates in McCoy's 5A supplemented with 10% fetal bovine serum and pen/strep and the cells were incubated overnight at 37° C. plus 5% CO2.
The following day, cells were treated with DMSO vehicle control or a dose response of PRMT5 inhibitors and incubated at 37 C plus 5% CO2 for five days. On Day 6, the cells were trypsinized and split 1:10 into new 96-well plates with fresh medium containing the same concentration of PRMT5 inhibitor and incubated for an additional 5 days at 37° C. plus 5% CO^2.
On Day 11, the viability of the cells was measured using a CTG assay kit (CellTiter-Glo; Promega cat.no G7573) in accordance with the manufacturer's instructions. The IC50 values for each compound after 10 days of treatment were calculated using GraphPad PRISM software.

[3] = system: PRMT5-dependent Symmetric Di-methyl Arginine signal in HCT116 homozygous MTAP knockout cells; assay: SYM11 In-Cell Western, HCT116 MTAP knockout; format: cell-based; conditions: HCT116 homozygous MTAP knockout cells, 4 days of treatment, SYM11/DRAQ5 ratio, read-out: In-cell-Western (SYM11) HCT116 MTAP_KO IC50
Method: as §1, §2, §3
Briefly, on Day 0, 2,000 HCT116 parental or HCT116 homozygous MTAP knockout cells were seeded in 96 well plates in McCoy's 5A supplemented with 10% fetal bovine serum and pen/strep and the cells were incubated overnight at 37° C. plus 5% CO2. The following day, cells were treated with DMSO vehicle control or a dose response of PRMT5 inhibitors, and incubated at 37° C. plus 5% CO^2 for four days.
After 4 days of treatment, the cells were fixed by adding 50 μl of 4% paraformaldehyde solution to each well and the cells were incubated for 20 min at room temperature. The paraformaldehyde solution was removed, 150 μl of ice-cold methanol was added and the plate was placed −20° C. for 10 minutes. The methanol was removed, 150 μl of Odyssey Blocking buffer+0.05% Tween20 was added and the plate was incubated at room temperature with shaking for one hour.
The primary SYM11 antibody solution was removed by aspiration and the wells were washed three consecutive times with phosphate buffered saline containing 0.1% Tween-20 (PBST).
The secondary antibody solution was removed by aspiration and the wells were washed three consecutive times with PB ST.
The SYM11 signal and the DRAQ5 signal were quantified using a Li-Cor Odyssey machine reading at […], respectively. The SYM11/DRAQ5 ratio was used to calculate the inhibition of Symmetric Dimethyl Arginine as percent of DMSO control.

PRMT5/MEP50 complex, sequence (O14744 2-637): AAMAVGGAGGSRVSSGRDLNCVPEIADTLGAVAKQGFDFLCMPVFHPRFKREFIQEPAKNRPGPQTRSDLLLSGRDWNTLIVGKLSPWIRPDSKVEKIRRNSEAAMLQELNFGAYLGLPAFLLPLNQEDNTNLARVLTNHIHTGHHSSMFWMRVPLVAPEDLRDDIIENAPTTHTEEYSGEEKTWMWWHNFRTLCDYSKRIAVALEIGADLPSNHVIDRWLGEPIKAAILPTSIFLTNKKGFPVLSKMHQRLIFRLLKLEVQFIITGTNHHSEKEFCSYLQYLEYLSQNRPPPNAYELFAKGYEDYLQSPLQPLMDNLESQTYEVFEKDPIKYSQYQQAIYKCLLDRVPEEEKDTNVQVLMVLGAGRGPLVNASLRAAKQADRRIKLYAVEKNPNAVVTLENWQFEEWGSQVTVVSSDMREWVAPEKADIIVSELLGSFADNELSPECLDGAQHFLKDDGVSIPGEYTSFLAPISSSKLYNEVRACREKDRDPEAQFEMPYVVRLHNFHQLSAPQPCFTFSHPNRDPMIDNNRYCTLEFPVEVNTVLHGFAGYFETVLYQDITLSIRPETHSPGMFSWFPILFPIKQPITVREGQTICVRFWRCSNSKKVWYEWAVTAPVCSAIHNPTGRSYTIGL
PRMT5/MEP50 complex, sequence (Q9BQA1 2-342 partner): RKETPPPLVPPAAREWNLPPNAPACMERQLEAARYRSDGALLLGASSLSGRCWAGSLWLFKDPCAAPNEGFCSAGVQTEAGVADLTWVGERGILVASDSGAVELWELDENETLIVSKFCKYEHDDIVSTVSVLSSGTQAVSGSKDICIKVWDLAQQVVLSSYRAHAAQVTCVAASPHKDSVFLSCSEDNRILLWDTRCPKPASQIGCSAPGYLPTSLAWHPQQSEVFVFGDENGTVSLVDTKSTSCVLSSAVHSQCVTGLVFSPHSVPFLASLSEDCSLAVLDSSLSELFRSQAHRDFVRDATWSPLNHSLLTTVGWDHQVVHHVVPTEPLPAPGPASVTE

Structure (SMILES): CC(N)c1n[nH]c(=O)c2ccc(-c3cnn(C)c3-c3cccc(Cl)c3C#N)cc12 (single isomer, unassigned) [Example 9-3, 2-[4-[4-(1-aminoethyl)-1-oxo-2H-phthalazin-6-yl]-2-methyl-pyrazol-3-yl]-6-chloro-benzonitrile]
- IC50 [1]: 1270 nM
- IC50 [2]: 4820 nM
- IC50 [3]: 141 nM

Structure (SMILES): Cn1nc(F)c(-c2ccc3c(=O)[nH]nc(CN)c3c2)c1-c1ccc2ccccc2c1C#N [Example 4-247, 2-(4-(4-(aminomethyl)-1-oxo-1,2-dihydrophthalazin-6-yl)-3-fluoro-1-methyl-1H-pyrazol-5-yl)-1-naphthonitrile]
- IC50 ([2]; Homo sapiens, HCT-116, 240 h): 1810 nM
- IC50 ([3]; Homo sapiens, HCT-116, 96 h): > 1000 nM

Structure (SMILES): Cn1cc2c(C#N)c(-c3c(-c4ccc5c(=O)[nH]nc(CN)c5c4)cnn3C)ccc2n1 [Example 4-248, 5-(4-(4-(aminomethyl)-1-oxo-1,2-dihydrophthalazin-6-yl)-1-methyl-1H-pyrazol-5-yl)-2-methyl-2H-indazole-4-carbonitrile]
- IC50 ([2]; Homo sapiens, HCT-116, 240 h): 1160 nM
- IC50 ([3]; Homo sapiens, HCT-116, 96 h): > 1000 nM

Structure (SMILES): Cn1ncc(-c2ccc3c(=O)[nH]nc(CN)c3c2)c1-c1ccc2c(cnn2C)c1C#N [Example 4-249, 5-(4-(4-(aminomethyl)-1-oxo-1,2-dihydrophthalazin-6-yl)-1-methyl-1H-pyrazol-5-yl)-1-methyl-1H-indazole-4-carbonitrile]
- IC50 ([2]; Homo sapiens, HCT-116, 240 h): 3510 nM
- IC50 ([3]; Homo sapiens, HCT-116, 96 h): > 1000 nM

Structure (SMILES): Cn1ncc(-c2ccc3c(=O)[nH]nc(CN)c3c2)c1-c1ccc2nscc2c1C#N [Example 4-250, 5-(4-(4-(aminomethyl)-1-oxo-1,2-dihydrophthalazin-6-yl)-1-methyl-1H-pyrazol-5-yl)benzo[c]isothiazole-4-carbonitrile]
- IC50 ([2]; Homo sapiens, HCT-116, 240 h): 757 nM
- IC50 ([3]; Homo sapiens, HCT-116, 96 h): 51 nM

Structure (SMILES): Cn1ncc(-c2ccc3c(=O)[nH]nc(CN)c3c2)c1-c1c(F)ccc(OC2CC2)c1C#N [Example 4-251, 2-(4-(4-(aminomethyl)-1-oxo-1,2-dihydrophthalazin-6-yl)-1-methyl-1H-pyrazol-5-yl)-6-cyclopropoxy-3-fluorobenzonitrile]
- IC50 ([2]; Homo sapiens, HCT-116, 240 h): 49 nM
- IC50 ([3]; Homo sapiens, HCT-116, 96 h): 8 nM

Structure (SMILES): Cn1ncc(-c2ccc3c(=O)[nH]nc(CN)c3c2)c1-c1cc(OC(F)(F)F)cc(OC2CC2)c1C#N [Example 4-252, 2-(4-(4-(aminomethyl)-1-oxo-1,2-dihydrophthalazin-6-yl)-1-methyl-1H-pyrazol-5-yl)-6-cyclopropoxy-4-(trifluoromethoxy)benzonitrile]
- IC50 ([2]; Homo sapiens, HCT-116, 240 h): 87 nM
- IC50 ([3]; Homo sapiens, HCT-116, 96 h): 4 nM

Structure (SMILES): Cn1ncc(-c2ccc3c(=O)[nH]nc([C@H](N)C(F)F)c3c2)c1-c1ccc2ccccc2c1C#N [Example 9-6, 2-[4-[4-[(1S)-1-amino-2,2-difluoro-ethyl]-1-oxo-2H-phthalazin-6-yl]-2-methyl-pyrazol-3-yl]naphthalene-1-carbonitrile]
- IC50 ([2]; Homo sapiens, HCT-116, 240 h): > 10000 nM
- IC50 ([3]; Homo sapiens, HCT-116, 96 h): > 1000 nM

Structure (SMILES): Cn1ncc(-c2cc(C(F)(F)F)c3c(=O)[nH]nc(CN)c3c2)c1-c1ccc2ccccc2c1C#N [Example 10-13, 2-(4-(4-(aminomethyl)-1-oxo-8-(trifluoromethyl)-1,2-dihydrophthalazin-6-yl)-1-methyl-1H-pyrazol-5-yl)-1-naphthonitrile]
- IC50 ([2]; Homo sapiens, HCT-116, 240 h): 85 nM
- IC50 ([3]; Homo sapiens, HCT-116, 96 h): 16 nM

Structure (SMILES): Cn1ncc(-c2cc(Cl)c3c(=O)[nH]nc(CN)c3c2)c1-c1cccc(OC2CC2)c1C#N [Example 10-14, 2-(4-(4-(aminomethyl)-8-chloro-1-oxo-1,2-dihydrophthalazin-6-yl)-1-methyl-1H-pyrazol-5-yl)-6-cyclopropoxybenzonitrile]
- IC50 ([2]; Homo sapiens, HCT-116, 240 h): 88 nM
- IC50 ([3]; Homo sapiens, HCT-116, 96 h): 75 nM

Structure (SMILES): Cc1cc(-c2cnn(C)c2-c2c(F)cc3ccccc3c2C#N)cc2c(CN)n[nH]c(=O)c12 [Example 10-15, 2-(4-(4-(aminomethyl)-8-methyl-1-oxo-1,2-dihydrophthalazin-6-yl)-1-methyl-1H-pyrazol-5-yl)-3-fluoro-1-naphthonitrile]
- IC50 ([2]; Homo sapiens, HCT-116, 240 h): 13 nM
- IC50 ([3]; Homo sapiens, HCT-116, 96 h): 4 nM

Structure (SMILES): Cn1ncc(-c2cc(Cl)c3c(=O)[nH]nc(CN)c3c2)c1-c1c(F)cc2ccccc2c1C#N [Example 10-17, 2-(4-(4-(aminomethyl)-8-chloro-1-oxo-1,2-dihydrophthalazin-6-yl)-1-methyl-1H-pyrazol-5-yl)-3-fluoro-1-naphthonitrile]
- IC50 ([2]; Homo sapiens, HCT-116, 240 h): 21 nM
- IC50 ([3]; Homo sapiens, HCT-116, 96 h): 21 nM

Structure (SMILES): Cc1cc(OC2CC2)c(C#N)c(-c2c(-c3cc(Cl)c4c(=O)[nH]nc(CN)c4c3)cnn2C)c1 [Example 10-19, 2-(4-(4-(aminomethyl)-8-chloro-1-oxo-1,2-dihydrophthalazin-6-yl)-1-methyl-1H-pyrazol-5-yl)-6-cyclopropoxy-4-methylbenzonitrile]
- IC50 ([2]; Homo sapiens, HCT-116, 240 h): 312 nM
- IC50 ([3]; Homo sapiens, HCT-116, 96 h): 185 nM

Structure (SMILES): Cc1cc(OC2CC2)c(C#N)c(-c2c(-c3cc(Cl)c4c(=O)[nH]nc(CN)c4c3)cnn2C)c1F [Example 10-20, 2-(4-(4-(aminomethyl)-8-chloro-1-oxo-1,2-dihydrophthalazin-6-yl)-1-methyl-1H-pyrazol-5-yl)-6-cyclopropoxy-3-fluoro-4-methylbenzonitrile]
- IC50 ([2]; Homo sapiens, HCT-116, 240 h): 35 nM
- IC50 ([3]; Homo sapiens, HCT-116, 96 h): 29 nM

Structure (SMILES): Cc1c(-c2c(-c3ccc4c(=O)[nH]nc(CN)c4c3)cnn2C)ccc2ccccc12 [Example 12-12, 4-(aminomethyl)-6-[1-methyl-5-(1-methyl-2-naphthyl)pyrazol-4-yl]-2H-phthalazin-1-one]
- IC50 ([2]; Homo sapiens, HCT-116, 240 h): 240 nM
- IC50 ([3]; Homo sapiens, HCT-116, 96 h): 26 nM

Structure (SMILES): Cc1cc2ccccc2c(C#N)c1-c1c(-c2ccc3c(=O)[nH]nc(CN)c3c2)cnn1C [Example 12-15, 2-[4-[4-(aminomethyl)-1-oxo-2H-phthalazin-6-yl]-2-methyl-pyrazol-3-yl]-3-methyl-naphthalene-1-carbonitrile]
- IC50 ([2]; Homo sapiens, HCT-116, 240 h): 261 nM
- IC50 ([3]; Homo sapiens, HCT-116, 96 h): 189 nM

Structure (SMILES): COc1cc2ccccc2c(C#N)c1-c1c(-c2ccc3c(=O)[nH]nc(CN)c3c2)cnn1C [Example 12-16, 2-[4-[4-(aminomethyl)-1-oxo-2H-phthalazin-6-yl]-2-methyl-pyrazol-3-yl]-3-methoxy-naphthalene-1-carbonitrile]
- IC50 ([2]; Homo sapiens, HCT-116, 240 h): 75 nM
- IC50 [2]: 73 nM
- IC50 [3]: 0.4 nM
- IC50 ([3]; Homo sapiens, HCT-116, 96 h): 0.5 nM

Structure (SMILES): Cc1cnc2ccc(-c3c(-c4ccc5c(=O)[nH]nc(CN)c5c4)cnn3C)c(C#N)c2c1 [Example 12-17, 6-[4-[4-(aminomethyl)-1-oxo-2H-phthalazin-6-yl]-2-methyl-pyrazol-3-yl]-3-methyl-quinoline-5-carbonitrile]
- IC50 ([2]; Homo sapiens, HCT-116, 240 h): 85 nM
- IC50 ([3]; Homo sapiens, HCT-116, 96 h): 10 nM

Structure (SMILES): Cc1cc(OC2CC2)c(C#N)c(-c2c(-c3ccc4c(=O)[nH]nc(CN)c4c3)cnn2C)c1 [Example 12-18, 2-(4-(4-(aminomethyl)-1-oxo-1,2-dihydrophthalazin-6-yl)-1-methyl-1H-pyrazol-5-yl)-6-cyclopropoxy-4-methylbenzonitrile]
- IC50 ([2]; Homo sapiens, HCT-116, 240 h): 104 nM
- IC50 ([3]; Homo sapiens, HCT-116, 96 h): 10 nM

Structure (SMILES): CCOc1cc(-c2cnn(C)c2-c2ccc3ccccc3c2C#N)cc2c(CN)n[nH]c(=O)c12 [Example 13-2, 2-[4-[4-(aminomethyl)-8-ethoxy-1-oxo-2H-phthalazin-6-yl]-2-methyl-pyrazol-3-yl]naphthalene-1-carbonitrile]
- IC50 ([2]; Homo sapiens, HCT-116, 240 h): 149 nM
- IC50 ([3]; Homo sapiens, HCT-116, 96 h): 64 nM

Structure (SMILES): CCOc1cc2ccccc2c(C#N)c1-c1c(-c2cc(OCC)c3c(=O)[nH]nc(CN)c3c2)cnn1C [Example 13-3, 2-[4-[4-(aminomethyl)-8-ethoxy-1-oxo-2H-phthalazin-6-yl]-2-methyl-pyrazol-3-yl]-3-ethoxy-naphthalene-1-carbonitrile]
- IC50 ([2]; Homo sapiens, HCT-116, 240 h): 565 nM
- IC50 ([3]; Homo sapiens, HCT-116, 96 h): 298 nM

Structure (SMILES): CCc1cc(-c2cnn(C)c2-c2cccc(OC3CC3)c2C#N)cc2c(CN)n[nH]c(=O)c12 [Example 15-2, 2-(4-(4-(aminomethyl)-8-ethyl-1-oxo-1,2-dihydrophthalazin-6-yl)-1-methyl-1H-pyrazol-5-yl)-6-cyclopropoxybenzonitrile]
- IC50 ([2]; Homo sapiens, HCT-116, 240 h): 211 nM
- IC50 ([3]; Homo sapiens, HCT-116, 96 h): 96 nM
